The source of these data is PubChem BioAssay (NCI).

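Five compound concentrations were applied to cells in 96-well plates for 48 hours; endpoints were derived by simple linear interpolation of the resulting dose-response curve. TGI: concentration producing complete growth inhibition.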

Test systems include 786-0 renal; A498 renal; COLO 205 colon; HS 578T breast; IGROV1 ovarian; MDA-MB-435; OVCAR-3 ovarian; OVCAR-4 ovarian; SNB-19 CNS; SNB-75 CNS; UACC-257 melanoma; UO-31 renal.
Holding throughout (assay): NCI anticancer screen, dose series, 48 h

Take `O=[N+]([O-])c1ccc2c(c1)Nc1c3ccccc3nc3cccc-2c13`: the TGI in the assay with 786-0 renal was 7.36 µM; in the assay with A498 renal it was greater than 100 µM; with COLO 205 colon, 19.8 µM; with HS 578T breast, greater than 100 µM; in the assay with IGROV1 ovarian, 15.4 µM; in the assay with MDA-MB-435 it was 36 µM. Also, the TGI in the assay on OVCAR-3 ovarian stood at 3.8 µM; with OVCAR-4 ovarian, 11.4 µM; in the assay with SNB-19 CNS, 47.6 µM; in the assay with SNB-75 CNS, 11.7 µM; with UACC-257 melanoma it was 47.9 µM; in the assay with UO-31 renal it was 28.9 µM.
